According to the NIST ThermoML archive (doi:10.1021/je060190e):

Details: 101.33 kPa, Liquid

CCCCn1cc[n+](C)c1.COS(=O)(=O)[O-] [1-butyl-3-methylimidazolium methyl sulfate]
Details	mass density [kg/m3]
290.95 K	1214.9
292.95 K	1213.5
294.95 K	1212.1
297 K	1210.7
299 K	1209.4
301 K	1208
303 K	1206.7
305 K	1205.3
307.05 K	1204
